Measurements taken from ChEMBL document CHEMBL3044802, “Synthesis, in vitro antimicrobial and antioxidant activities of chalcone and flavone derivatives holding allylic substitutions” (Med Chem Res, 2011).
In brackets after ≈: the same amount, converted by molar mass.

Legend:
Assay type in all cases: functional
[1] = system: Staphylococcus epidermidis; assay: Antimicrobial activity against Staphylococcus epidermidis after overnight incubation by conventional agar-dilution method
[2] = system: Radical scavenging activity; assay: Antioxidant activity assessed as DPPH free radical scavenging activity after 30 min by UV-VIS spectrophotometer analysis
Staphylococcus aureus = assay: Antimicrobial activity against Staphylococcus aureus after overnight incubation by conventional agar dilution method
Kluyveromyces marxianus = assay: Antimicrobial activity against Kluyveromyces marxianus after overnight incubation by conventional agar-dilution method
Escherichia coli = assay: Antimicrobial activity against Escherichia coli after overnight incubation by conventional agar-dilution method
[3] = Antioxidant activity assessed as Fe2+ reducing power after 20 min

Row | SMILES | MIC [1] | IC50 [2] | MIC (Staphylococcus aureus) | MIC (Kluyveromyces marxianus) | MIC (Escherichia coli) | IC50 [3]
1 | C=CCOc1c(OC)cccc1-c1cc(=O)c2cccc(CC=C)c2o1 | > 1000 µg/mL | 320 µM | > 1000 µg/mL | 512 µg/mL (≈ 1470 µM) | > 512 µg/mL | 1.11 µM
2 | Cc1cc(NS(=O)(=O)c2ccc(N)cc2)no1 [SULFAMETHOXAZOLE] | 4 µg/mL (≈ 15.8 µM) | – | 4 µg/mL (≈ 15.8 µM) | – | 4 µg/mL (≈ 15.8 µM) | –
3 | C=CCOc1ccc(-c2cc(=O)c3cccc(CC=C)c3o2)cc1OC | > 1000 µg/mL | 270 µM | > 1000 µg/mL | > 512 µg/mL | > 512 µg/mL | 0.57 µM
4 | C=CCOc1c(/C=C/C(=O)c2cccc(CC=C)c2O)cccc1OC | > 1000 µg/mL | 163 µM | > 1000 µg/mL | 512 µg/mL (≈ 1460 µM) | 512 µg/mL (≈ 1460 µM) | 1.87 µM
5 | Cc1c(C)c2c(c(C)c1O)CCC(C)(C(=O)O)O2 (stereo not given) [TROLOX] | – | 36 µM | – | – | – | 41.9 µM
6 | OC(Cn1cncn1)(Cn1cncn1)c1ccc(F)cc1F [FLUCONAZOLE] | – | – | – | 4 µg/mL (≈ 13.1 µM) | – | –
7 | C=CCOc1ccc(/C=C/C(=O)c2cccc(CC=C)c2O)cc1OC | > 1000 µg/mL | 85 µM | > 1000 µg/mL | 512 µg/mL (≈ 1460 µM) | 512 µg/mL (≈ 1460 µM) | 2.96 µM
